Publication PMC11117721, “A Fast-Binding, Functionally Reversible, COX-2 Radiotracer for CNS PET Imaging” (ACS Central Science, 2024)

Target: T1, COX-2 (Rattus norvegicus, UniProt P35355)
T1 construct: endogenous COX-2 expression in naïve rats; from tissue; host or cells: brain of living naive rats
T1 sequence (P35355 18-604): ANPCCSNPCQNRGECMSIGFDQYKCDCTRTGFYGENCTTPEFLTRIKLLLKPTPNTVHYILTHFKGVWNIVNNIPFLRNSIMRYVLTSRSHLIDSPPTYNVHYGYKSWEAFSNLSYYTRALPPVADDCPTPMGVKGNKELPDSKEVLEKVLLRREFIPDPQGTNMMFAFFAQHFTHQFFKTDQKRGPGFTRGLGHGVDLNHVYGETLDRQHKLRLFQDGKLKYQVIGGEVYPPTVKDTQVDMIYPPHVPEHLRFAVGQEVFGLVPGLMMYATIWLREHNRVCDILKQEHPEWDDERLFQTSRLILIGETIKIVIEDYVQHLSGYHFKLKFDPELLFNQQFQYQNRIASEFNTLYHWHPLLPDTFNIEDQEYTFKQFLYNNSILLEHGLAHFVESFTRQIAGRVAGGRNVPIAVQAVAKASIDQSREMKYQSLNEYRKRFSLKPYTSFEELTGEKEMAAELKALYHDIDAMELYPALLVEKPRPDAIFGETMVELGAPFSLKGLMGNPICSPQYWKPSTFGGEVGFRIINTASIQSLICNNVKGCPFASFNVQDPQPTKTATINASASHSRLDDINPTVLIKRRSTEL
Assay: PET neuroimaging of naïve rats
Conditions: in vivo PET, result in words
Procedure: deepest would be injected and allowed to perfuse for 15 min until all three injections were completed.
In some experimental groups, mannitol was injected intraperitoneally (IP) or co -administered with the […]
After the surgical procedure was completed, animals were given enough time to recover (generally 28 days post-surgery) to facilitate cellular transduction with the AAV as well as subsequent expression of COX -2 and GFP, before subsequent imaging or IHC interrogation was conducted.
Rodent PET/MRI Acquisition
All PET and MRI experimental procedures were acquired on a 4.7 Tesla PET-MRI scanner using a B-GA20S HP gradient coil with a PET Insert Si 198 (Bruker Biospin, Billerica, MA). Custom 3D-printed cradles were used to secure anesthetized animals in the scanner. Rat and mice experimental groups were imaged separately. For rats, one animal was placed head-prone, and the other was placed tail-prone, aligning their heads in the scanner. For rat blocking experiments celecoxib was formulated in 20% ethanol, 30% polyethylene glycol and 50% saline and diluted appropriately to administer 1 mL/kg. For mice, up to six mice were inserted, two head prone and four tail prone. ParaVision 6 (Bruker) was used to acquire MR images, and ParaVision 360 (Bruker) was used to obtain PET images. […]

brain uptake: rapid and robust brain uptake
Structure (SMILES): [11CH3]S(=O)(=O)c1ccc(-c2cccc(NCc3ccoc3)n2)cc1 [[^11C]BRD1158]
